The text below walks through data of patent US20250099406A1, “TREATING CANCERS WITH COMBINATIONS OF ACYLFULVENES WITH IBRUTINIB AND/OR BORTEZOMIB” (LANTERN PHARMA INC., priority 2022, published 2025).

In the experiment the test system is JeKo-1 MCL xenograft tumors. The experiment can be described thus: JeKo-1 MCL cell line-derived xenograft mouse study. Type of experiment: in vivo, NOD.Scid mice. The conditions noted are these: for tumor response to single-agent treatment: n=8/arm, low dose LP-284 (2 mg/kg i.v.), bortezomib 1 mg/kg i.p. or ibrutinib 50 mg/kg p.o.; for tumor volume: at day 17, on bortezomib (1 mg/kg i.p.) or ibrutinib (50 mg/kg p.o.), tumors refractory; for tumor size: day 16, treated by bortezomib (1 mg/kg, i.p.) or ibrutinib (50 mg/kg, p.o.). The method, then: The JeKo-1 MCL cell line-derived xenograft mice (n=8/arm) were treated with vehicle, LP-284 (2 mg/kg or 4 mg/kg, i.v.), bortezomib (1 mg/kg, i.p.), or ibrutinib (50 mg/kg, p.o.) at days indicated by arrows in the graph. Tumor volumes were measured every 2 to 4 days after treatment initiation.
The two drugs were replaced with one cycle of 4 mg/kg LP-284 or the vehicle (saline).
Each treatment arm was then further split into two sub-arms (n=4/sub-arm), one of which was treated by vehicle whereas the other was treated by 4 mg/kg LP-284 (i.v.), as indicated by arrows in the graph.
Five-week old NOD.Scid mice were procured through Envigo (Item 17003F). Mice were fed Teklad irradiated (sterilized) mouse diet and bedded with Teklad irradiated (sterilized) corncob bedding from Envigo (Indianapolis, IN). Mice were housed in Optimice carousel sterile quarters with filtered air supply in disposable cages from Animal Care Systems, Inc. (Centennial, CO). A total of 1×10^7 cells JeKo-1 cells were injected subcutaneously into the right hind flank of each animal using a […] needle. Vehicle (saline), 4 mg/kg or 2 mg/kg LP-284 was administered as an intravenous injection on day 1, 3, 5, 7, 9, 17, 19, 21, 23, 25. 50 mg/kg ibrutinib was administered orally daily on day 1-16. 1 mg/kg bortezomib administered as an intraperitoneal injection on day 1, 4, 7, 10. The ibrutinib and bortezomib arms were further treated with vehicle or 4 mg/kg LP-284 intravenously on day 17, 19, 21, 23, 25. Tumors were measured in two dimensions using calipers, and volume was calculated using the formula:
TumorVolume (mm^3)=w2×l/2
where w=width and l=length, in mm, of the tumor. For this study the calipers were aligned to the tumor edges (the tumors were not squeezed with the caliper).

“Also recorded” adds a separate entry of the source.

For the molecule `CC1=C(CN(O)C(N)=O)C2=C(C)C3(CC3)[C@](C)(O)C(=O)C2=C1` [LP-284, (+)-hydroxyureamethyl acylfulvene], the “tumor response to single-agent treatment” value was “resulted in refractory cancer after initially controlling cell growth in tumors”. Further, the “survival versus vehicle (Kaplan-Meier)” value (bortezomib or ibrutinib pre-treated and refractory xenograft mice switched to 4 mg/kg LP-284 i.v., p<0.001) is listed as “approximately two times longer; also recorded: prolonged survival”. Under “one cycle of 4 mg/kg LP-284 i.v. on day 17, 19, 21, 23, 25, tumors ~2000 mm3, n=4/sub-arm, 4 mg/kg”, the “tumor response after switching bortezomib- or ibrutinib-refractory mice to LP-284” value is “almost completely eliminating; also recorded: near complete tumor regression; also recorded: diminished rapidly”.
Take `C=CC(=O)N1CCC[C@@H](n2nc(-c3ccc(Oc4ccccc4)cc3)c3c(N)ncnc32)C1` [ibrutinib, (R)-1-(3-(4-amino-3-(4-phenoxyphenyl)-1H-pyrazolo[3,4-d]pyrimidin-1-yl)piperidin-1-yl) prop-2-en-1-one]: the tumor volume is reported as approximately 2000 mm3, the tumor size is given as approximately 2000 mm3 and the “tumor response to single-agent treatment” value is “refractory”. Further, the “tumor response to single-agent treatment” value (listed as Ibrutinib) is “resulted in refractory cancer after initially controlling cell growth in tumors; also recorded: become refractory and relapse”.
As to `CC(C)C[C@H](NC(=O)[C@H](Cc1ccccc1)NC(=O)c1cnccn1)B(O)O` [bortezomib, [(1R)-3-methyl-1-({(2S)-3-phenyl-2-[(pyrazin-2-ylcarbonyl)amino]propanoyl}amino)butyl]boronic acid], the tumor volume is approximately 2000 mm3, the tumor size is approximately 2000 mm3 and the “tumor response to single-agent treatment” value is “refractory”. Besides, the “tumor response to single-agent treatment” value (listed as Bortezomib) was “resulted in refractory cancer after initially controlling cell growth in tumors; also recorded: become refractory and relapse”.
